From patent US8969294B2 (Istituto di Recerche di Biologia Molecolare P. Angeletti …, priority 2008, dated 2015)

Experiments:
[1] = Body weight of DIO mice after i.p. injection (Example 26); format: in vivo; conditions: 15 or 70 nmol/kg i.p., 7 days
Description: DIO mice were injected intraperitoneally with vehicle only or 15 or 70 nmol/kg of one of the following:
Body weight was measured before injection and at 1, 3, 5, and 7 days post-injection.

[2] = Diet-induced obese C57B6 mice, s.c. Peptide X-PEG / Y-PEG (Examples 45-49); format: in vivo
Description: C57BI/6 mice were obtained from Jackson Laboratories and fed a diabetogenic diet from Research Diets, a high sucrose diet with 58% kcal from fat. Mice were single or group-housed on a 12:12-h light-dark cycle at 22° C. with free access to food and water. All studies were approved by and performed according to the guidelines of the Institutional Animal Care and Use Committee of the University of Cincinnati.
Whole body composition (fat and lean mass) was measured using NMR technology (EchoMRI, Houston, Tex.).
Energy intake and expenditure, as well as home-cage activity, were assessed by using a combined indirect calorimetry system (TSE Systems, Bad Homburg, Germany). Oxygen consumption and CO2 production were measured every 45 min for a total of 120 h (including 12 h of adaptation) to determine the respiratory quotient and energy expenditure. Food and water intake and meal patterns were determined continuously for 120 h at the same time as the indirect calorimetry assessments by integration of scales into the sealed cage environment. Meals were defined as food intake events with a minimum duration of 60 s, and a break of 300 s between food intake events. Home-cage locomotor activity was determined using a multidimensional infrared light beam system with beams scanning the bottom and top levels of the cage, and activity being expressed as beam breaks. Stationary motor activity (fidgeting) was defined as consecutive breaks of one single light beam at cage-bottom level, ambulatory movement as breaks of any two different light beams at cage-bottom level, and rearing as simultaneous breaks of light beams on both cage-bottom and the top level.
Blood was collected after a 6-h fast from tail veins using EDTA-coated Microvette tubes (Sarstedt, Nuremberg, Germany) and immediately chilled on ice. After 15 min of centrifugation at 3,000 g and 4° C., plasma was stored at −80° C. Plasma insulin was quantified by a radioimmunoassay from Linco (Sensitive Rat Insulin RIA; Linco Research, St. Charles, Mo.). Plasma TGs and cholesterol levels were measured by enzymatic assay kits (Thermo Electron, Waltham, Mass.). Samples were analyzed individually with the exception that pooled samples (0.25 ml) from 5 animals/group were subjected to fast-performance liquid chromatography (FPLC) gel filtration on two Superose 6 columns connected in series for lipoprotein separation. All assays were performed according to the manufacturer's instructions.
For the determination of glucose tolerance, mice were subjected to 6 h of fasting and injected intraperitoneally (i.p.) with 2 g glucose/kg body wt (50% D-glucose (Sigma) in 0.9% saline) for the glucose tolerance test (GTT). Tail blood glucose levels (mg/dl) were measured by using a hand-held glucometer (TheraSense Freestyle) before (0 min) and at 15, 30, 60, 90, and 120 min after injection.
The 40-kd pegylated peptides Peptides X-PEG and Y-PEG were used as single weekly subcutaneous (s.c) injections in diet-induced obese (D10) C57B6 mice.
Long-term effects of these lower doses on food intake (p=0.95; FIG. 29C) were less impressive than short-term effects with a higher dose (FIG. 27C).

[3] = Diet-induced obese rats, once-a-week injection, 3-week treatment; format: in vivo; conditions: 70 nmol/kg/week, 3 weeks
Description: To determine if the principal phenomenon generalizes across species, both compounds were administered to diet-induced obese rats (mean weight 777.4+/−2.1 g, dose 70 nmol/kg/week, once-a-week injection, 3-week treatment).

[4] = GLP-1 receptor knock out (GLP-1R−/−) mice on high-fat diet, one month; format: in vivo
[5] = test system: hormone sensitive lipase (HSL); assay: Western blot of WAT HSL phosphorylation; format: in vivo, mice; conditions: one month treatment
Description: Adipose tissue was placed in a 1.5-ml microfuge tube and lysed in ice cold RIPA buffer (1×PBS, 1% Nonidet P40, 0.5% sodium doxycholate, 0.1% SDS with 50 mM NaF, […], 0.1 mM Na Vanadate, 20 μg/ml Aprotinin, 10 μg/ml Leupeptin) using a tissue lyser (Retsch, Inc Newtown, Pa. Cat. #85210) at 30 hz for 3 min. Samples were spun at 12,000 rpm for 15 min (4° C.) at which time the internatant was removed to a new tube and sonicated for 15 sec on ice. Samples were spun at 14,000 rpm for 10 min (4° C.) and the internatant was collected to a new tube. Samples were again spun at 19,000 rpm for 10 min (4° C.) and the internatant collected to a new tube. An aliquot of sample was then taken for protein assay. Samples were then boiled in 4×SDS/DTT buffer for 2 min. 50 μg of protein from cell lysate were subjected to SDS/PAGE on 9% (w/v) acrylamide resolving gels and transferred to Hybond ECL nictrocellulose membranes. […] After washing, primary antibody detection was performed using either HRP-conjugated anti-(rabbit IgG) or anti-(mouse IgG) (HRP-conjugated anti-rabbit and anti-mouse secondary antibodies were purchased from Bio-Rad (170-6515 & 170-6516)) and detected using enhanced chemiluminescence (Amersham Biosciences) and exposed to CL-Xposure film (Pierce).

[6] = test system: Uncoupling protein I (UCP1); assay: UCP1 levels in brown adipose tissue; design: species or system mice; conditions: mouse, in vivo
[7] = 70 nmol/kg s.c. Days 0 and 7, Day 9

## H(Aib)QGTFTSDYSKYLDEQAAKEFICWLMNT-amide [Peptide X-PEG]
[1]
  ability to lower body weight: comparable ability to lower body weight
[2]; [7]
  leptin: 7308 ± 2927 pg/mL
  plasma triglycerides: no significant effect on triglycerides
[2]; Day 3
  blood glucose profile (AUC), i.p. glucose challenge: 13794±824.1
[2]; after one month of treatment
  Plasma C-peptide levels: 624.7 pg/mL
  plasma insulin: 1034 pg/mL
[2]; chronic s.c. treatment over 27 days
  total cholesterol: 106.9 mg/dL
[2]; single s.c. 0-350 nmol/kg
  dose response of body weight and blood glucose: linearly responsive, dose-dependent decreases in body weight and blood glucose
[2]; weekly s.c. 70 nmol/kg
  Energy expenditure: 17.19±1.49 kcal/[kg*h]
  change in fat mass: −52.2%
  respiratory quotient: 0.725±0.01
[2]; weekly s.c. 70 nmol/kg, from Day 3
  Blood glucose levels, mean decrease: −24.5%
[2]; weekly s.c. 70 nmol/kg, one month
  decrease in body weight: 20.1%
[3]
  change in body weight: −11.15+/−0.88%
  change in fat mass: −19.17+/−2.03%
[4]
  body weight: caused a reduction of body weight (p>0.05
  food intake: no effect on food intake
[5]
  phosphorylation of hormone sensitive lipase (HSL) in white adipose tissue: 1.135±0.315
[6]
  Uncoupling protein I (UCP1) levels in brown adipose tissue: 2.167±0.429
